According to paper PMC11413503, “SCR‐7952, a highly selective MAT2A inhibitor, demonstrates synergistic antitumor activities in combination with the S‐adenosylmethionine‐competitive or the methylthioadenosine‐cooperative protein arginine methyltransferase 5 inhibitors in methylthioadenosine phosphorylase‐deleted tumors” (MedComm, 2024):

Assays:
KvLQT1/mink = KvLQT1/mink (Homo sapiens, UniProt P51787); experiment: Mini-profiling panel, ion channel; assay type: cell-based
Method: (§1) Further insight into selectivity was evaluated in a functional panel of 47 representative targets closely related to human life activities, including G protein‐coupled receptors, transporters, ion channels, kinases, nuclear hormone receptor targets, and nonkinase enzymes (Table S3).

nAChR(a4/b2) = nAChR(a4/b2) (Homo sapiens, UniProt P17787+P43681); experiment: Mini-profiling panel, ion channel; assay type: cell-based
Method: as §1

HTR3A = HTR3A (Homo sapiens, UniProt P46098); experiment: Mini-profiling panel, ion channel; assay type: cell-based
Method: as §1

NMDAR (1A/2B) = NMDAR (1A/2B) (Homo sapiens, UniProt Q05586+Q13224); experiment: Mini-profiling panel, ion channel; assay type: cell-based
Method: as §1

NAV1.5 = NAV1.5 (Homo sapiens, UniProt Q14524); experiment: Mini-profiling panel, ion channel; assay type: cell-based
Method: as §1

MAT2A protein expression = experiment: Immunoblot of MAT2A protein expression; assay type: cell-based; details: 96 h, HCT116 MTAP−/− and WT cells
[1] = Functional panel of 47 representative targets; details: at 10 µM
HCT116 MTAP−/− xenograft = experiment: Xenograft combination treatment study; assay type: in vivo, mice; details: SCR-7952 0.3 mg/kg alone
Method: Subcutaneous injections of HCT116 MTAP ^−/− cells were performed (5 × 10^6 cells in 100 µL) into Nu/Nu female mice. Mice were observed daily for the development of tumors. Six days after tumor implantation, mice were randomly distributed into different groups. SCR‐7952, AG‐270, JNJ‐64619178, or vehicle (water with 5% N‐methylpyrrolidone and 10% solutol HS‐15) were daily administrated by oral gavage. Tumor volumes and body weights were recorded three times per week. Tumor volumes were measured in two dimensions using a caliper, and the volume was expressed in mm^3 using the formula: V = (L × W × W)/2, where V is tumor volume, L is tumor length (the longest tumor dimension), and W is tumor width (perpendicular to L). The tumor growth inhibition rate (TGI%) of each dosing group was calculated according to the following formula: %TGI = (1 − (V t(treatment group) − V 0(treatment group))/(V t(vehicle group) − V 0(vehicle group))) × 100%, where V t is average tumor volume of a dosing group on a specific day, V 0 is average tumor volume of a dosing group on the initial day. At the end of the study, plasma and tumor tissues were collected and stored at −80°C for further measurement.

DAT = DAT (Homo sapiens, UniProt Q01959); experiment: Mini-profiling panel, transporter; assay type: cell-based
Method: as §1

SERT = SERT (Homo sapiens, UniProt P31645); experiment: Mini-profiling panel, transporter; assay type: cell-based
Method: as §1

NET = NET (Homo sapiens, UniProt P23975); experiment: Mini-profiling panel, transporter; assay type: cell-based
Method: as §1

COX2 = COX2 (Homo sapiens, UniProt P35354); experiment: Mini-profiling panel, non-kinase enzyme; assay type: biochemical; details: Non-Kinase Enzymes; read-out: COX2 Inhibitor IC50
[2] = system: SAM levels in HCT116 MTAP−/− xenograft tumors and mice plasma; experiment: In vivo SAM measurement in tumors and plasma; details: 2 or 4 h post the final dose, low group, 16 days
Method: The concentration of SAM in plasma and tissue samples was determined using a UPLC–MS/MS method. For plasma samples, an aliquot of 20 µL plasma sample was added with 400 µL extraction buffer (1 M acetic acid in MeOH), then vortexed and centrifuged at 16,000 g for 5 min. The supernatant was treated as the homogenized tissue sample, and the sample dilution factor was 21. For tumor samples, the tumor tissues were homogenized with 9 volumes (v/w) of extraction buffer, then vortexed and centrifuged at 16,000 g for 5 min. The supernatant was treated as the homogenized tissue sample. An aliquot of 30 µL tissue sample was added with 600 µL extraction buffer, then vortexed and centrifuged at 16,000 g for 5 min. The total sample dilution factor is 210. An aliquot of 60 µL diluted samples, standards, or QCs was added with 400 µL extraction buffer with IS (SAM‐d 3, 50 ng/mL in extraction buffer). The mixture was vortexed at 250 g for 10 min and centrifuged at 16,000 g for 5 min. An aliquot of 4 µL supernatant was injected for UPLC–MS/MS analysis. The standard calibration curve was in a 1.0–300 ng/mL concentration range. UPLC–MS/MS method for SAM detection was performed as mentioned before.

HRH2 = HRH2 (Homo sapiens, UniProt P25021); experiment: Mini-profiling panel, GPCR; assay type: cell-based; details: GPCR Targets
human UGT1A1 = human UGT1A1 (Homo sapiens, UniProt P22309); experiment: UGT1A1 biochemical assay
AVPR1A = AVPR1A (Homo sapiens, UniProt P37288); experiment: Mini-profiling panel, GPCR; assay type: cell-based; details: GPCR Targets
[3] = Plasma bilirubin in mice after oral treatment; assay type: in vivo; details: SCR-7952 1.0 mg/kg, 14 days oral treatment, 2 h after final dose
INSR = INSR (Homo sapiens, UniProt P06213); experiment: Mini-profiling panel, kinase; assay type: biochemical; details: Kinases; read-out: INSR Inhibitor IC50
ADRB1 = ADRB1 (Homo sapiens, UniProt P08588); experiment: Mini-profiling panel, GPCR; assay type: cell-based; details: GPCR Targets
PDE3A = PDE3A (Homo sapiens, UniProt Q14432); experiment: Mini-profiling panel, non-kinase enzyme; assay type: biochemical; details: Non-Kinase Enzymes; read-out: PDE3A Inhibitor IC50

HTR3A, sequence (P46098 24-478, species assumed): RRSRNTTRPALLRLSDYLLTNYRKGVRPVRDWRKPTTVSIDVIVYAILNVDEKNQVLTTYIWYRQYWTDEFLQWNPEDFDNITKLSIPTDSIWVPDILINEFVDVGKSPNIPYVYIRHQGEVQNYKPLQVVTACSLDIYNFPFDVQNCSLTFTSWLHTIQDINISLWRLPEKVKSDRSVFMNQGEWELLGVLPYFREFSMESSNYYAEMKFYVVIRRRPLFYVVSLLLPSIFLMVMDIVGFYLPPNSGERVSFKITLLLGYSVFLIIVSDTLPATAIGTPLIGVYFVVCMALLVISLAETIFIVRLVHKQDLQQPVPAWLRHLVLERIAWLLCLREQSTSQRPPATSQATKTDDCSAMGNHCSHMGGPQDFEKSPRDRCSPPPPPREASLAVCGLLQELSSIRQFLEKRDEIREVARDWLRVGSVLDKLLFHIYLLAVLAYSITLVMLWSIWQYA
KvLQT1/mink, sequence (P51787 whole entry): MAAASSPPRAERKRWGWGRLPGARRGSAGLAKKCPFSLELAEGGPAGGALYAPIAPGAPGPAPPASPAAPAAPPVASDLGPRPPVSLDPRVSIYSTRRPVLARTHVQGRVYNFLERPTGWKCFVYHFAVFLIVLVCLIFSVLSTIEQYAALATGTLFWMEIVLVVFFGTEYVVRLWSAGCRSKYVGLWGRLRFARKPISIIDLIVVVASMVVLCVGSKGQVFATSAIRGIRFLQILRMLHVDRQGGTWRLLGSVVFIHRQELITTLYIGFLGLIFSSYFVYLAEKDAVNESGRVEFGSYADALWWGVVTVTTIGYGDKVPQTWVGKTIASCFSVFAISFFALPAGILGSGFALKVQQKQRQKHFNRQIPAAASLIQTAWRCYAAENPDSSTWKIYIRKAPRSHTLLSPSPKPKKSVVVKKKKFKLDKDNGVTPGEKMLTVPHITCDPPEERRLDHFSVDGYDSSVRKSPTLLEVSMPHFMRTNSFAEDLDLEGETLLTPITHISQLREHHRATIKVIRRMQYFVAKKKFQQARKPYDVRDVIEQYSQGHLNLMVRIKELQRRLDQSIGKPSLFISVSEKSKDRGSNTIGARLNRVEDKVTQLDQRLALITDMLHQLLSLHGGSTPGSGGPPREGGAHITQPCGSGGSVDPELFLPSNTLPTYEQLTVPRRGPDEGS
ADRB1, sequence (P08588 whole entry, species assumed): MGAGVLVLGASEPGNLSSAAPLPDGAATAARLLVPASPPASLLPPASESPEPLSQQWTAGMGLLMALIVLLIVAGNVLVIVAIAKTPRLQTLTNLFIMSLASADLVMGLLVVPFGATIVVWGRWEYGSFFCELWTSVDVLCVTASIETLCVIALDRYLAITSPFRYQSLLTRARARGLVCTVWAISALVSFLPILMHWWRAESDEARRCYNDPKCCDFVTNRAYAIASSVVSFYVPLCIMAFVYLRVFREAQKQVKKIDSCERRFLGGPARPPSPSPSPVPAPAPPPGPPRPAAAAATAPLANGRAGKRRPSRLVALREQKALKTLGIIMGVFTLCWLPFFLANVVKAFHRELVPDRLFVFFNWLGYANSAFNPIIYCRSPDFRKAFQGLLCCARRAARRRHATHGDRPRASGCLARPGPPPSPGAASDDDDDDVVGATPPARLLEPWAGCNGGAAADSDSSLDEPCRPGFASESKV
AVPR1A, sequence (P37288 whole entry, species assumed): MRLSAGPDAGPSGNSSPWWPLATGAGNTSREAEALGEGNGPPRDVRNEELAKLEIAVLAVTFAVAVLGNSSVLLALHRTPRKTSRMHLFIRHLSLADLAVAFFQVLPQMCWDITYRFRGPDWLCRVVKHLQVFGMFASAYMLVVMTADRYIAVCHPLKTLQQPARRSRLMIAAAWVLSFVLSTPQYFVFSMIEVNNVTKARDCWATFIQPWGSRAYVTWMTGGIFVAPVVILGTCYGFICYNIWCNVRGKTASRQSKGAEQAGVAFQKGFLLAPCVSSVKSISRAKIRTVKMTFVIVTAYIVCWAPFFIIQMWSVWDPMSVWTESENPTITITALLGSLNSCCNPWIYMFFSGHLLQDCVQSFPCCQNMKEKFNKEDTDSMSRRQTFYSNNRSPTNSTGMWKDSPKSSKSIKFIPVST
nAChR(a4/b2), sequence (P43681 29-627 limits assumed): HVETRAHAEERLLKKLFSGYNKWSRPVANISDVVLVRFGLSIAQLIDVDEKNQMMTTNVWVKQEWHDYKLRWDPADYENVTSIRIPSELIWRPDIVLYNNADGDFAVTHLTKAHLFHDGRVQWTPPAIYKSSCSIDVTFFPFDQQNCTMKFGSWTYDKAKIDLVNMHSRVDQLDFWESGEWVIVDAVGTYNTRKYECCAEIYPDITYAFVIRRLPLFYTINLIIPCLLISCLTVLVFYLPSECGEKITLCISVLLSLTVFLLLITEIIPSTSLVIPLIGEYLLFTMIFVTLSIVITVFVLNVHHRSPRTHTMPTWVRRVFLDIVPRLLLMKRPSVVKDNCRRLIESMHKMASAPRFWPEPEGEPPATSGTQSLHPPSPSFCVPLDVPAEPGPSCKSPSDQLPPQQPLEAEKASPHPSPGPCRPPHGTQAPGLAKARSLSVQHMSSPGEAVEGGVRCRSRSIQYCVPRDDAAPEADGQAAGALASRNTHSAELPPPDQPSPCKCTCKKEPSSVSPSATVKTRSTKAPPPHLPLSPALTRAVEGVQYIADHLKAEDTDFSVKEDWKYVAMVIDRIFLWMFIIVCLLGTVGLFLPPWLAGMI
nAChR(a4/b2), sequence (P17787 26-502): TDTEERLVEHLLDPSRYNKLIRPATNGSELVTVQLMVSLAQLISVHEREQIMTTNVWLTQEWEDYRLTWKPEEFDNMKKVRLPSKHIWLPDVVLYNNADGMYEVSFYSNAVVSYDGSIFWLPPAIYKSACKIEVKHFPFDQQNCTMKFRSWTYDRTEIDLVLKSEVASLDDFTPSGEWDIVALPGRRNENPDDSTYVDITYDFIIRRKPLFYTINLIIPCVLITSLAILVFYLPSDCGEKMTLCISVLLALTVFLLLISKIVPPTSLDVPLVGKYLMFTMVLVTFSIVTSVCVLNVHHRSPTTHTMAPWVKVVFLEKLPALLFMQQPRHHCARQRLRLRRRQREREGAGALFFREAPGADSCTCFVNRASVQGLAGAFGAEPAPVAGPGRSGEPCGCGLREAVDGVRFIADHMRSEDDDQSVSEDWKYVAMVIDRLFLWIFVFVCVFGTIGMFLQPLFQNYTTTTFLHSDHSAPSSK
HRH2, sequence (P25021 whole entry, species assumed): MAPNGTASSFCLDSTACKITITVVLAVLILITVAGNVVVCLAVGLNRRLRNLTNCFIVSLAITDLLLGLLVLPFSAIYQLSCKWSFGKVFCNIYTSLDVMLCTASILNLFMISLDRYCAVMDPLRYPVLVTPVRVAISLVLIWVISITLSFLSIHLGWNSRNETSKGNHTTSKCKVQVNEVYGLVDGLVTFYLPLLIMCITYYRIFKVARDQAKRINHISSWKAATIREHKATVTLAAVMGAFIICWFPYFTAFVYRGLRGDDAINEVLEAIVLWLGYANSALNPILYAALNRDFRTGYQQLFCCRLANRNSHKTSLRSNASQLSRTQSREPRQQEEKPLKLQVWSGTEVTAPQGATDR
INSR, sequence (P06213 28-1382, species assumed): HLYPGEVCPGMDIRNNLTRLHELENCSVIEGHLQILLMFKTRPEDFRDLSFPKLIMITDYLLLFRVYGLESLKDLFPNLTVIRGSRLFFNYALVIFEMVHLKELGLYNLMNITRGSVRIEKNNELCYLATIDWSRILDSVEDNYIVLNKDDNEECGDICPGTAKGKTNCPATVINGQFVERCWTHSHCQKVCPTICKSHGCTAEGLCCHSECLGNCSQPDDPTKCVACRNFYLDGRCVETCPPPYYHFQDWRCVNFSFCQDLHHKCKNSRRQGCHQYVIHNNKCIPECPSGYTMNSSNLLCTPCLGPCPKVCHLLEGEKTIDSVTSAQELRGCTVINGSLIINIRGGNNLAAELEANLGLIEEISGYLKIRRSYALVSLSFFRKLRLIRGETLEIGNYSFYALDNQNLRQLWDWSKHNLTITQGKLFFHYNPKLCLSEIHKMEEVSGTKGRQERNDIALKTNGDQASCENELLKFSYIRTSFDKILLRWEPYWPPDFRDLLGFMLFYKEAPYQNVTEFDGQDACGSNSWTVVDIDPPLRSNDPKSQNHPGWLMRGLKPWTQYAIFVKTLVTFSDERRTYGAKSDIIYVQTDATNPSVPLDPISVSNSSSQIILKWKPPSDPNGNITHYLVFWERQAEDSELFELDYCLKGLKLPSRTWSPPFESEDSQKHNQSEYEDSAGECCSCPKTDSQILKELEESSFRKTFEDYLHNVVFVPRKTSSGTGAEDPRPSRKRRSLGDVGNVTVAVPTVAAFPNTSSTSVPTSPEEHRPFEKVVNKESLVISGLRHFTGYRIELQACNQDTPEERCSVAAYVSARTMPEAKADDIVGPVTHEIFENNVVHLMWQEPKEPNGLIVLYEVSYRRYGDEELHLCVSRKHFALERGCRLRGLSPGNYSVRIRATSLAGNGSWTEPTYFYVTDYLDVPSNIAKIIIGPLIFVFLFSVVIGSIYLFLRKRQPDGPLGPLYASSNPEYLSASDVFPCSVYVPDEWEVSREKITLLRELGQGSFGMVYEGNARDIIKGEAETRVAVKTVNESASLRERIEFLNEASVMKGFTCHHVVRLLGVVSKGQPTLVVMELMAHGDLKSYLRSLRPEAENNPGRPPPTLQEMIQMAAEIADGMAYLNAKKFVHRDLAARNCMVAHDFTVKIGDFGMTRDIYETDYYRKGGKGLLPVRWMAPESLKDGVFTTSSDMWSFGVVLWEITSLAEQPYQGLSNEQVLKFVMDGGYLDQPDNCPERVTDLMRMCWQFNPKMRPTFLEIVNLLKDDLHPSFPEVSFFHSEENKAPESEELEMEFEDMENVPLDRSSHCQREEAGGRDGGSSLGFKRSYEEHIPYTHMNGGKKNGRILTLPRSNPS

Cn1cnc2c(=O)n(-c3cccnc3C3CC3)c3cc(Cl)ccc3c21 [SCR‐7952, 7‐chloro‐5‐(2‐cyclopropylpyridin‐3‐yl)‐1‐methyl‐1,5‐dihydro‐4H‐imidazo[4,5‐c]quinolin‐4‐one]
EC50 (KvLQT1/mink): > 10 µM
IC50 (KvLQT1/mink): > 10 µM
EC50 (nAChR(a4/b2)): > 10 µM
IC50 (nAChR(a4/b2)): > 10 µM
EC50 (HTR3A): > 10 µM
IC50 (HTR3A): > 10 µM
EC50 (NMDAR (1A/2B)): > 10 µM
IC50 (NMDAR (1A/2B)): > 10 µM
IC50 (NAV1.5): > 10 µM
expression of MAT2A protein (MAT2A protein expression): upregulated
agonistic or antagonistic activities on 47 targets [1]: did not exhibit significant pharmacological effects
TGI (HCT116 MTAP−/− xenograft): 55.0%
IC50 (DAT): > 10 µM
IC50 (SERT): > 10 µM
IC50 (NET): > 10 µM
IC50 (COX2): > 10 µM
inhibition of SAM levels in tumors and plasma [2]: 53.56–68.72%
EC50 (HRH2; read-out: HRH2 Agonism EC50): > 10 µM
IC50 (HRH2; read-out: HRH2 Antagonism IC50): > 10 µM
IC50 (human UGT1A1): > 100 µM
EC50 (AVPR1A; read-out: AVPR1A Agonism EC50): > 10 µM
IC50 (AVPR1A; read-out: AVPR1A Antagonism IC50): > 10 µM
effect on mice plasma levels of bilirubin [3]: no significant effect
IC50 (INSR): > 10 µM
EC50 (ADRB1; read-out: ADRB1 Agonism EC50): > 10 µM
IC50 (ADRB1; read-out: ADRB1 Antagonism IC50): > 10 µM
IC50 (PDE3A): > 10 µM
